Measurements: ChEMBL document CHEMBL4418264, “2,4,5-trisubstituted thiazole compounds,preparation methods,pharmaceutical compositions and medical uses thereof” (2014)

Legend:
[1] = target: T1, Cholesteryl ester transfer protein (Homo sapiens) (UniProt P11597); test: Inhibition of CETP (unknown origin) at 500 uM incubated for 0.5 hrs by double illuminometer/fluorescence counter method relative to control
T1 sequence (whole entry): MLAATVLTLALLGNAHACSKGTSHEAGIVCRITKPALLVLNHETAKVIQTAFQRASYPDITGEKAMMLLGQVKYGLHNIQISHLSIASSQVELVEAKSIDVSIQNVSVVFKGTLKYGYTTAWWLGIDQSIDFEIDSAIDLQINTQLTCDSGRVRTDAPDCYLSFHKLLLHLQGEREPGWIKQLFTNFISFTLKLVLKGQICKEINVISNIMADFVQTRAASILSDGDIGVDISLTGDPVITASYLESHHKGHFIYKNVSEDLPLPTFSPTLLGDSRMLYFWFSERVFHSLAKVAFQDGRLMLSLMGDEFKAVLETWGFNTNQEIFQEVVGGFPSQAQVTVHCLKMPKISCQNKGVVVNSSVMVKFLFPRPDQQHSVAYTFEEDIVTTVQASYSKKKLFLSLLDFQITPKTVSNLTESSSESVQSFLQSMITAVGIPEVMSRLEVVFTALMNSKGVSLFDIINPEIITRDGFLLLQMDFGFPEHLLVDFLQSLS

[2] = target: Phospholipid transfer protein (Homo sapiens) (UniProt P55058); test: Inhibition of PLTP in plasma (unknown origin) assessed as reduction in phospholipid transfer from phospholipid liposome to HDL at 250 uM measured after 1 hr relative to control; type: cell-free
Chain of Phospholipid transfer protein (Homo sapiens) (P55058 whole entry): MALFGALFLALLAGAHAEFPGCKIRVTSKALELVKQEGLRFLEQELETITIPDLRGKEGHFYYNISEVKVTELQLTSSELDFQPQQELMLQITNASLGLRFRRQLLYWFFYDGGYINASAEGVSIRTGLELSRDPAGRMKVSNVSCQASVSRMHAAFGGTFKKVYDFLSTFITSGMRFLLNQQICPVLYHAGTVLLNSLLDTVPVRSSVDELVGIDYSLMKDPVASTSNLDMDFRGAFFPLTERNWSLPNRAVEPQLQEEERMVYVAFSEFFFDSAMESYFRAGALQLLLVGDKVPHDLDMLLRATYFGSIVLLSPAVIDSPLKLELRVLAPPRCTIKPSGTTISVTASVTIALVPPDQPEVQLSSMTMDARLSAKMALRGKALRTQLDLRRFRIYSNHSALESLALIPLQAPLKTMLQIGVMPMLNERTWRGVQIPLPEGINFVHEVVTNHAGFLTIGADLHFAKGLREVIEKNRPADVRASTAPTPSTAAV

[3] = target: Phospholipid transfer protein (Homo sapiens) (UniProt P55058); test: Inhibition of PLTP in plasma (unknown origin) assessed as reduction in phospholipid transfer from phospholipid liposome to HDL at 500 uM measured after 1 hr relative to control; type: cell-free
[4] = target: Phospholipid transfer protein (Homo sapiens) (UniProt P55058); test: Inhibition of PLTP in plasma (unknown origin) assessed as reduction in phospholipid transfer from phospholipid liposome to HDL at 150 uM measured after 1 hr relative to control; type: cell-free

inhibition [1] [%] | inhibition [2] [%] | inhibition [3] [%] | inhibition [4] [%] | Compound
52.8 | 11.5 | – | – | COc1ccc(-c2nc(N)sc2Cc2ccc(F)cc2)cc1
58.7 | 71.9 | – | – | Cc1sc(NC(=O)c2ccc(O)c(O)c2)nc1-c1ccc(O)cc1
0 | 100 | – | – | O=C(Nc1nc(-c2ccccc2)c(Cc2ccc([N+](=O)[O-])cc2)s1)c1ccc(O)c(O)c1
20.9 | 100 | – | – | O=C(Nc1nc(-c2ccc(O)cc2)c(CC2CCCCC2)s1)c1cc(O)c(O)c(O)c1
19.4 | 79.8 | – | – | O=C(Nc1nc(-c2ccc(O)cc2)c(Cc2ccccc2)s1)c1ccc(O)c(O)c1
91.6 | – | 61 | – | COc1ccc(-c2nc(N3CCOCC3)sc2Cc2ccccc2)cc1
65.4 | 15.3 | – | – | CCCCc1sc(N)nc1-c1ccc(OC)cc1
0 | 93.4 | – | – | CCCCc1sc(NC(=O)c2ccc(O)c(O)c2)nc1-c1ccc(O)cc1
85.9 | 10.7 | – | – | Cc1sc(NC(=O)c2cc(O)c(O)c(O)c2)nc1-c1ccc(O)cc1
88 | – | – | 11.5 | O=C(Nc1nc(-c2ccc(O)cc2)c(Cc2ccccc2)s1)c1ccc(O)cc1O
44.1 | – | – | 89.4 | O=C(Nc1nc(-c2ccc(O)cc2)c(Cc2ccccc2)s1)c1cc(O)c(O)c(O)c1
75.8 | 24 | – | – | COc1ccc(-c2nc(N)sc2CCc2ccccc2)cc1
0 | 97 | – | – | O=C(Nc1nc(-c2ccc(O)cc2)c(CCc2ccccc2)s1)c1ccc(O)c(O)c1
9.2 | 73.2 | – | – | O=C(Nc1nc(-c2ccc(O)cc2)c(Cc2ccc(F)cc2)s1)c1ccc(O)c(O)c1
30.4 | 67.6 | – | – | O=C(Nc1nc(-c2ccc(O)cc2)c(Cc2ccc([N+](=O)[O-])cc2)s1)c1ccc(O)c(O)c1
71.6 | – | – | 0 | COc1ccc(C(=O)Nc2nc(-c3ccc(O)cc3)c(Cc3ccccc3)s2)cc1
25.3 | – | – | 75.7 | O=C(CCc1ccc(O)c(O)c1)Nc1nc(-c2ccc(O)cc2)c(Cc2ccccc2)s1
80.4 | – | – | 0 | O=C(Nc1nc(-c2ccc(O)cc2)c(Cc2ccccc2)s1)c1ccc(Cl)cc1
27.3 | 100 | – | – | CCCCc1sc(NC(=O)c2cc(O)c(O)c(O)c2)nc1-c1ccc(O)cc1
74.5 | – | 100 | – | COc1ccc(-c2nc(N3CCNCC3)sc2Cc2ccccc2)cc1
79.8 | – | – | 0 | COc1ccc(-c2nc(N)sc2CC2CCCCC2)cc1
6 | – | – | 81.6 | O=C(Nc1nc(-c2ccc(O)cc2)c(CC2CCCCC2)s1)c1ccc(O)c(O)c1
0 | 100 | – | – | O=C(Nc1nc(-c2ccc(F)cc2)c(Cc2ccc([N+](=O)[O-])cc2)s1)c1ccc(O)c(O)c1
